Source: patent US20250041377A1, “PHARMACEUTICAL USE” (ENLITISA (SHANGHAI) PHARMACEUTICAL CO., LTD., priority 2018, published 2025)
Where a SMILES comes first, the peptide text is derived from it. Where no end group is shown, it is not given here. [ ]: non-standard residue; d: D form. Dopa = N[C@@H](Cc1ccc(O)c(O)c1)C(=O)O; Hyp = O=C(O)[CH]1C[CH](O)CN1; 3Hyp = 3-hydroxyproline

Experiments:
[1] = test system: carrageenan-induced acute inflammation in subcutaneous air pouch; test: Air pouch model, histological scores of skin biopsies; format: in vivo, C57BL/6 mice; set-up: Fibroplastic proliferation score: scale not given here; settings: for Fibroplastic proliferation score / Inflammation score / Edema Score: 0.6 mg/mL, 300 μg/mouse injected into air pouch 1 hour before carrageenan; for Inflammation score: HE slices scored 1-3 points; for Edema Score: scored 1-3 points; for Sum: sum of scores, 300 μg/mouse into air pouch
Protocol: (§1) Healthy adult male C57BL/6 mice weighing between 20 and 30 g were supplied by Nanjing Biomedicial Research Institute of Nanjing University (NBRI). Prior to any experiments being conducted, mice were housed under standardized conditions (at a constant temperature of 22±2° C., with alternating 12 hour periods of light and darkness), and were fed on a standard mouse diet with water, for about a week.
(§2) General anesthesia was induced using intraperitoneal 3% chloral hydrate (Sinopharm Chemical Reagent Co., Ltd., Shanghai, China; 1 mL/10 g of body weight). The hair of the entire dorsum was shaved and depilated 1 day before sterile air injection.
Air pouches were produced by subcutaneous injection of sterile air (5 mL) into the intrascapular area of the mice. After three days, another injection of air (3 mL) was performed to maintain the pouches. In order to induce acute inflammation, three days after this final injection, animals received an injection of sterile carrageenan solution (CP Kelco, Taixing, Jiangsu Province, China. 1%, 0.5 mL; produced by adding 0.1 g of carrageenan powder into a beaker containing 10 mL of 0.9% saline solution and stirring). Mice were pre-treated with test samples or vehicle 1 hour before and 23 hours after the carrageenan injection into the subcutaneous air pouch. Animals were sacrificed 24 hours after the carrageenan injection.
Skin biopsies were taken from the air pouches. A part of the biopsy was fixed in formalin (produced by adding ultra pure water to 50 mL of a 40% formaldehyde solution (Nanchang Rain Dew Experimental Equipment Co., Ltd., Nanchang, Hubei Province, China) up to a total volume of 500 mL) and analyzed by histological embedding in paraffin wax, sectioning and staining.
After conducting some preliminary experiments to validate the model, an experiment was conducted in which mice were treated by administering test samples or vehicle in accordance with Table 1 below.
All the substances listed in Table 1 were administrated topically by directly injecting into the air pouches.
The histological specimens were analyzed and an inflammation score, an activity score (i.e. the number and density of neutrophils shown in pathological slides, indicating the degree of inflammation and, in the case of open wound and infective diseases, the degree of infection), an edema score and a fibroblast proliferation score were estimated as follows.
The HE stained slices were observed under an optical microscope and were scored (1, 2 or 3 points) according to the perceived inflammation level (in cases showing only a small amount of inflammatory cells scattered in the area-1 point (mild); in cases where many inflammatory cells were observed-2 points (moderate); and, in cases with diffuse infiltration-3 points (severe). A similar scoring system was employed for edema levels (3 points for most severe and 1 point for mild) after overall observation. Scores for neutrophils employed the same methodology as that employed for inflammatory cells.

[2] = test system: Hyp, VEGF and TGF-β1 in wound tissue; test: Acute wound model, ELISA of wound tissue; format: in vivo, C57BL/6 mice; settings: for wound Hyp content (Mean): indicator of collagen regeneration; for TGF-β1 content (Mean): wound tissue
Excerpt: The model group was given same amount of normal saline. There were 8 mice in each group.
Samples were taken at Day 4 and Day 7 post-wound infliction. The mice were sacrificed and the wound tissue taken by the same biopsy punch used to create the wound. Then 5 mm of tissue was cut off from the center of the sample and was preserved in 10% neutral buffered formalin (Nanchang Rain Dew Experimental Equipment Co., Ltd., Nanchang, Hubei Province, China), and analyzed by histological embedding (HE) in paraffin wax, sectioning and staining.
The rest of the samples were stored at −80° C. for further analysis. Tissue was cut into small pieces and liquid nitrogen was added to increase brittleness. 9 mL of normal saline was added to 1 g of tissue, which was then ground using a Tissuelyser (Shanghai Jingxin Industrial Development Co., Ltd., Shanghai, China) at 55 Hz for 60 seconds, followed by centrifuging at 8000 rpm for 10 minutes at 4° C.
The supernatant was collected, and the extracted protein was used for ELISA analysis using standard ELISA test kits and an ELISA reader (SH-1000 Hitachi, Japan). Vascular endothelial growth factor (VEGF), transforming growth factor beta 1 (TGF-β1) and hydroxyproline (Hyp) were assayed. The ELISA kits were purchased from Beijing 4A Biotech Co., Ltd. (Beijing, China).

[3] = DPPH assay of antioxidant capacity; settings: 200 μL peptide solution in 3.8 mL 0.06 mg/mL DPPH; 1.5 hours, room temperature, dark; absorbance 517 nm
Protocol: The antioxidant capacity of Compound B was determined using a 2,2-diphenyl-1-(2,4,6-trinitrophenyl) hydrazyl (DPPH) assay.
Compounds A and B were obtained as described in Example 3 above. The peptide powders were stored at −20° C. and dissolved in saline at concentrations as indicated below. DPPH was purchased from Sigma-Aldrich China, Shanghai. Other reagents employed and identified below were purchased from Shanghai Aladdin Bio-Chem Technology Co. Ltd., China.
The DPPH method is one of the most commonly used methods in determination of antioxidant capacity. DPPH is a stable, nitrogen-centred free radical with a dark purple solution and a maximum absorption peak at 517 nm. When a free radical scavenger is present in the reaction system, it can be paired with a single electron of DPPH., and the absorption peak at 517 nm is gradually dissipated.
The degree of colour change bears a stoichiometric relationship to the number of paired electrons. Thus, antioxidant activity can be measured according to the change of absorbance. The greater the inhibition rate, the stronger the antioxidant capacity. […]
200 μL of peptide solution was added to 3.8 mL of the DPPH solution. […] The absorbance at 517 nm was measured and was denoted as A1. The absorbance of the blank control sample was denoted as A0. Thus, the percentage of the […] is calculated as: Clearance rate (%)=[A0−A1]/A0×100

[4] = test system: TNF-α, IL-6 and IL-1B in exudate; test: Air pouch model, ELISA of exudate; format: in vivo, C57BL/6 mice; settings: 300 μg/mouse into air pouch; FIG. 1
Protocol: as §1, §2
Air pouches were produced by subcutaneous injection of sterile air (5 mL) into the intrascapular area of the mice. After three days, another injection of air (3 mL) was performed to maintain the pouches. […]
Exudates were collected and volumes were quantified. The exudates were centrifuged at 3000 rpm for 10 minutes at 4° C., and the supernatants were collected and stored at −20° C. for ELISA analysis using standard ELISA test kits from Beijing 4A Biotech Co., Ltd. (Beijing) and an ELISA reader (SH-1000 Hitachi, Japan) for […] (TNF-α), interleukin 1 beta (IL-1B), interleukin 6 (IL-6). […]

Row | Compound | Fibroplastic proliferation score [1] | Inflammation score [1] | Edema Score [1] | Sum [1] | wound Hyp content (Mean) ([2]; Day 4) | TGF-β1 content (Mean) ([2]; Day 4) | wound Hyp content (Mean) ([2]; Day 7) | TGF-β1 content (Mean) ([2]; Day 7) | DPPH clearance rate [3] | ELISA test results of the exudate for TNF-α, IL-6 and IL-1B [4] | increase of VEGF production in the wounded tissue ([2]; in comparison with model group)
1 | Ala-Lys-Pro-Ser-Tyr-Hyp-Hyp-Thr-DOPA-Lys (AKPSY[3Hyp][Hyp]T[Dopa]K; listed as Mytilus edulis) [Compound A] | 0.2 | 1.6 | 1.8 | 3.4 | 3.676 µg/mg | 11866.2 pg/g | 2.694 µg/mg | 18074.8 pg/g | 52.11% |  | 
2 | CC(N)C(=O)NC(CCCCN)C(=O)N1CCCC1C(=O)NC(CO)C(=O)NC(Cc1ccc(O)cc1)C(=O)N1CC(O)CC1C(=O)N1CC(O)CC1C(=O)NC(C(=O)NC(Cc1ccc(O)cc1)C(=O)NC(CCCCN)C(=O)O)C(C)O (stereo not drawn) [Compound B, Ala-Lys-Pro-Ser-Tyr-Hyp-Hyp-Thr-Tyr-Lys] (H-AKPSY[Hyp][Hyp]TYK-OH; configuration not given here) | 1.00 | 1.6 | 1.2 | 2.8 | 2.039 µg/mg | 20571.8 pg/g | 2.810 µg/mg | 18659.6 pg/g | 8.9% | very strong anti-inflammatory effects | about 56.7%
